Experiment [1] relates to barnyardgrass. As to the kind of experiment: Test A preemergence. Format: in vivo, Echinochloa crus-galli. As to conditions: Echinochloa crus-galli, pre-emergence, 240 h; for pest or weed control at 125 g/ha: 125 g ai/ha, 0 to 100 scale where 0 is no effect and 100 is complete control; for pest or weed control at 500 g/ha: 500 g ai/ha, 0 to 100 scale, 0 no effect, 100 complete control, approx. 10 days. The essentials: (§1)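 Compounds in non-phytotoxic solvent with surfactant applied as soil spray preemergence, or postemergence to plants 2-10 cm at one- to two-leaf stage, in loam/sand. After approximately 10 days in greenhouse, injury rated visually versus untreated controls, 0 (no effect) to 100 (complete control).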

The test system of experiment [2] is velvetleaf. As to the kind of experiment: Test C postemergence. Format: in vivo, Abutilon theophrasti. The settings on record: Abutilon theophrasti, post-emergence. The text has this: (§2) Seeds of plant species selected from blackgrass (Alopecurus myosuroides), Italian ryegrass (Lolium multiflorum), wheat, winter (winter wheat, Triticum aestivum), galium (catchweed bedstraw, Galium aparine), corn (Zea mays), large (Lg) crabgrass (Digitaria sanguinalis), giant foxtail (Setaria faberii), johnsongrass (Sorghum halepense), lambsquarters (Chenopodium album), morningglory (Ipomoea coccinea), yellow nutsedge (Cyperus esculentus), pigweed (Amaranthus retroflexus), ragweed (common ragweed, Ambrosia elatior), soybean (Glycine max), barnyardgrass (Echinochloa crus-galli), oilseed rape (Brassica napus), waterhemp (common waterhemp, Amaranthus rudis), kochia (Kochia scoparia), wild oat (Avena fatua), surinam grass (Brachiaria decumbens), foxtail, green (green foxtail, Setaria viridis), goosegrass (Eleusine indica), bromegrass, downy (downy bromegrass, Bromus tectorum), nightshade (eastern black nightshade, Solanum ptycanthum), cocklebur (common cocklebur, Xanthium strumarium), cupgrass, woolly (woolly cupgrass, Eriochloa villosa), bermudagrass (Cynodon dactylon), sunflower, (common oilseed sunflower, Helianthus annuus), Russian thistle (Salsola kali), and velvetleaf (Abutilon theophrasti) were planted into a blend of loam soil and sand and treated preemergence with test chemicals formulated in a non-phytotoxic solvent mixture which included a surfactant.
(§3) At the same time, plants selected from these crop and weed species and also barley, winter (winter barley, Hordeum vulgare), windgrass (Apera spica-venti), chickweed (common chickweed, Stellaria media), deadnettle (henbit deadnettle, Lamium amplexicaule), and canarygrass (littleseed canarygrass, Phalaris minor) were planted in pots containing Redi-Earth® planting medium (Scotts Company, 14111 Scottslawn Road, Marysville, Ohio 43041) comprising spaghnum peat moss, vermiculite, wetting agent and starter nutrients and treated with postemergence applications of test chemicals formulated in the same manner. Plants ranged in height from 2 to 18 cm (1- to 4-leaf stage) for postemergence treatments. Treated plants and controls were maintained in a greenhouse for 13 to 15 days, after which time all species were compared to controls and visually evaluated. Plant response ratings, summarized in Table C, are based on a scale of 0 to 100 where 0 is no effect and 100 is complete control. A dash (-) response means no test result.

Experiment [3] has as its system soybean. As to the kind of experiment: Test C postemergence. Format: in vivo, Glycine max. The settings on record: Glycine max, post-emergence.
From the text: as §2, §3

Experiment [4] relates to sedge, umbrella. As to the kind of experiment: Test B flooded paddy test. Format: in vivo, Cyperus difformis. The settings on record: Cyperus difformis, Flood, 250 g ai/ha; 0 to 100 scale where 0 is no effect and 100 is complete control; read-out: Plant response rating, Sedge, Umbrella. The essentials:
(§4)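 Plants were grown to the 2-leaf stage, then pots were flooded to 3 cm above the soil and compounds were applied directly into the paddy water. That depth was held throughout, and after 13 to 15 days in the greenhouse injury was rated visually against controls on a 0–100 scale (0 no effect, 100 complete control).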

Experiment [5] relates to lambsquarters. As to the kind of experiment: Test C postemergence. Format: in vivo, Chenopodium album. The settings on record: Chenopodium album, post-emergence.
From the text: as §2, §3

Experiment [6] relates to corn. Description: Test A postemergence. As to conditions: Zea mays, post-emergence, 240 h; for Corn plant response rating (crop injury, 0 = no effect, 100 = complete kill) at 125 g/ha: 125 g ai/ha, 0 to 100 scale where 0 is no effect and 100 is complete control; for plant injury at 500 g/ha: 500 g ai/ha, 0 to 100 scale, 0 no effect, 100 complete control, read-out: Plant response rating Corn. Format: in vivo, Zea mays. The essentials:
as §1

In experiment [7] the test system is large (Lg) crabgrass. As to the kind of experiment: Test C postemergence. Format: in vivo, Digitaria sanguinalis. The settings on record: Digitaria sanguinalis, post-emergence.
From the text: as §2, §3

Experiment [8] has as its system barnyardgrass. Description: Test A postemergence. The settings on record: Echinochloa crus-galli, post-emergence, 240 h; for pest or weed control at 125 g/ha: 125 g ai/ha, 0 to 100 scale where 0 is no effect and 100 is complete control, read-out: Plant response rating, Barnyardgrass; for pest or weed control at 500 g/ha: 500 g ai/ha, 0 to 100 scale, 0 no effect, 100 complete control, read-out: Plant response rating Barnyardgrass. Format: in vivo, Echinochloa crus-galli. The method in brief:
as §1

In experiment [9] the test system is rice. As to the kind of experiment: Test B flooded paddy test. Format: in vivo, Oryza sativa. As to conditions: Oryza sativa; Flood, 250 g ai/ha; 0 to 100 scale where 0 is no effect and 100 is complete control; read-out: Plant response rating, Rice. The essentials:
as §4

The subject of experiment [10] is johnsongrass. As to the kind of experiment: Test C preemergence. Format: in vivo, Sorghum halepense. The settings on record: Sorghum halepense, pre-emergence. The method in brief: (§5)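 Preemergence: seeds sown in a loam soil–sand blend and sprayed with test chemical in a non-phytotoxic solvent mixture containing surfactant. Postemergence: plants at 2 to 18 cm (1- to 4-leaf stage) in peat-based medium, treated with the same formulation. Greenhouse 13 to 15 days, then visual rating 0 (no effect) to 100 (complete control).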

In experiment [11] the test system is large (Lg) crabgrass. Description: Test C preemergence. Format: in vivo, Digitaria sanguinalis. As to conditions: Digitaria sanguinalis, pre-emergence. The essentials:
as §5

Experiment [12] concerns galium. Description: Test C preemergence. As to conditions: Galium, pre-emergence. Format: in vivo, Galium aparine. The essentials:
as §5

Experiment [13] concerns velvetleaf. Description: Test C preemergence. The settings on record: Abutilon theophrasti, pre-emergence. Format: in vivo, Abutilon theophrasti. The essentials:
as §5

Where [14] appears, read: read-out: Barnyardgrass plant response rating.

On to `Fc1cnc(Oc2ccccc2-n2cc(Br)cn2)nc1` [Compound 10, 2-[2-(4-bromo-1H-pyrazol-1-yl)phenoxy]-5-fluoropyrimidine], for which the pest or weed control at 125 g/ha was found to be 60% in experiment [1] (setting [14]); 70% in experiment [2] (125 g ai/ha, postemergence, read-out: Plant response rating (0 to 100), Velvetleaf); 75% in [5] (125 g ai/ha, postemergence, read-out: Plant response rating (0 to 100), Lambsquarters); 5% in experiment [7] (125 g ai/ha, postemergence, read-out: Plant response rating (0 to 100), Crabgrass, Large); 40% in experiment [8]. The pest or weed control at 500 g/ha in [1] (setting [14]) and in [8] was 90% throughout. Besides, the pest or weed control at 250 g/ha in experiment [2] (250 g ai/ha, postemergence, read-out: Plant response rating (0 to 100), Velvetleaf) came to 90%; in [4] it was 50%; in experiment [5] (250 g ai/ha, postemergence, read-out: Plant response rating (0 to 100), Lambsquarters) it was 98%; in experiment [7] (250 g ai/ha, postemergence, read-out: Plant response rating (0 to 100), Crabgrass, Large), 35%. In addition, the pest or weed control at 31 g/ha was 50% in [2] (Postemergence, 31 g ai/ha, scale 0 to 100 (0 no effect, 100 complete control), 13 to 15 days, read-out: Plant response rating, Velvetleaf); 55% in [5] (Postemergence, 31 g ai/ha, scale 0 to 100 (0 no effect, 100 complete control), 13 to 15 days, read-out: Plant response rating, Lambsquarters); 5% in experiment [7] (Postemergence, 31 g ai/ha, scale 0 to 100 (0 no effect, 100 complete control), 13 to 15 days, read-out: Plant response rating, Crabgrass, Large). Further, the pest or weed control at 62 g/ha was 70% in experiment [2] (Postemergence, 62 g ai/ha, scale 0 to 100 (0 no effect, 100 complete control), read-out: Plant response rating, Velvetleaf); 55% in experiment [5] (Postemergence, 62 g ai/ha, scale 0 to 100 (0 no effect, 100 complete control), read-out: Plant response rating, Lambsquarters); 5% in [7] (Postemergence, 62 g ai/ha, scale 0 to 100 (0 no effect, 100 complete control), read-out: Plant response rating, Crabgrass, Large). Further, the Soybean plant response rating (crop injury, 0-100 scale) at 125 g/ha in [3] (125 g ai/ha, postemergence, read-out: Plant response rating (0 to 100), Soybean) was found to be 85%. Further, the Soybean plant response rating (crop injury, 0-100 scale) at 250 g/ha in experiment [3] (250 g ai/ha, postemergence) stood at 95%. Further, the Soybean plant response rating (crop injury, 0-100 scale) at 31 g/ha in experiment [3] (Postemergence, 31 g ai/ha, scale 0 to 100 (0 no effect, 100 complete control), 13 to 15 days) turned out to be 50%. The same compound had a Soybean plant response rating (crop injury, 0-100 scale) at 62 g/ha in [3] (Postemergence, 62 g ai/ha, scale 0 to 100 (0 no effect, 100 complete control)) of 75%. The same compound came in with a Corn plant response rating (crop injury, 0 = no effect, 100 = complete kill) at 125 g/ha in [6] of 20%. In experiment [6], the plant injury at 500 g/ha was 50%. In addition, in experiment [9], the plant injury at 250 g/ha is 0%.
`FC(F)(F)c1cnn(-c2ccccc2Oc2ncc(Br)cn2)c1` [Compound 18, 5-bromo-2-[2-[4-(trifluoromethyl)-1H-pyrazol-1-yl]phenoxy]pyrimidine]: the pest or weed control at 125 g/ha in experiment [1] (read-out: Plant response rating, Barnyardgrass) turned out to be 90%; in experiment [10] (125 g ai/ha, preemergence, scale 0 (no effect) to 100 (complete control), read-out: Johnsongrass plant response rating), 80%; in experiment [11] (125 g ai/ha, preemergence, scale 0 (no effect) to 100 (complete control), read-out: Crabgrass, Large plant response rating), 100%; in [12] (125 g ai/ha, preemergence, scale 0 (no effect) to 100 (complete control), read-out: Galium plant response rating), 100%; in experiment [13] (125 g ai/ha, preemergence, scale 0 (no effect) to 100 (complete control), read-out: Velvetleaf plant response rating), 100%; in experiment [8], 60%. The pest or weed control at 500 g/ha in [1] (setting [14]) and in [8] was 100% each time. For the same compound, the pest or weed control at 62 g/ha turned out to be 30% in experiment [10] (62 g ai/ha, preemergence, scale 0 (no effect) to 100 (complete control), read-out: Johnsongrass plant response rating); 100% in experiment [11] (62 g ai/ha, preemergence, scale 0 (no effect) to 100 (complete control), read-out: Crabgrass, Large plant response rating); 95% in [12] (62 g ai/ha, preemergence, scale 0 (no effect) to 100 (complete control), read-out: Galium plant response rating); 100% in [13] (62 g ai/ha, preemergence, scale 0 (no effect) to 100 (complete control), read-out: Velvetleaf plant response rating). The pest or weed control at 250 g/ha in experiment [10] (250 g ai/ha, preemergence, scale 0 (no effect) to 100 (complete control), read-out: Johnsongrass plant response rating) was found to be 98%; in experiment [4], 90%; in [11] (250 g ai/ha, preemergence, scale 0 (no effect) to 100 (complete control), read-out: Crabgrass, Large plant response rating), 100%; in experiment [12] (250 g ai/ha, preemergence, scale 0 (no effect) to 100 (complete control), read-out: Galium plant response rating) it was 100%; in [13] (250 g ai/ha, preemergence, scale 0 (no effect) to 100 (complete control), read-out: Velvetleaf plant response rating), 100%. In addition, the pest or weed control at 31 g/ha in experiment [10] (Preemergence, 31 g ai/ha, scale 0 to 100, 0 no effect, 100 complete control, read-out: Plant response rating, Johnsongrass) is 30%; in [11] (Preemergence, 31 g ai/ha, scale 0 to 100, 0 no effect, 100 complete control, read-out: Plant response rating, Crabgrass, Large), 75%; in experiment [12] (Preemergence, 31 g ai/ha, scale 0 to 100, 0 no effect, 100 complete control, read-out: Plant response rating, Galium) it was 90%; in experiment [13] (Preemergence, 31 g ai/ha, scale 0 to 100, 0 no effect, 100 complete control, read-out: Plant response rating, Velvetleaf), 60%. In addition, the Corn plant response rating (crop injury, 0 = no effect, 100 = complete kill) at 125 g/ha in [6] worked out at 30%. For the same compound, the plant injury at 500 g/ha in experiment [6] worked out at 90%. Moreover, in experiment [9], the plant injury at 250 g/ha was found to be 0%.

(Values after patent US9695155B2, “Herbicidal substituted pyrimidinyloxy benzene compounds” (E. I. DU PONT DE NEMOURS AND COMPANY, priority 2013, dated 2017).)
